Calls of active or inactive are those of the source. No cut-off for these calls is given here.
These compounds were tested against Protein S100-A4 (Homo sapiens, UniProt P26447) (assay: Binding affinity to S100A4 (unknown origin) assessed as inhibition of S100A4/myosin-2A interaction using fluorescein-tagged myosin-2A peptide (1908 to 1923 residues) by fluorescence polarization assay). Conditions: not given.
Protein S100-A4, sequence (P26447 whole entry, the tested form may be a part): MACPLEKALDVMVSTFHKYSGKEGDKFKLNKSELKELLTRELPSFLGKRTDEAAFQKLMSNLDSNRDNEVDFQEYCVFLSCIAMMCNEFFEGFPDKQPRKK

| Structure (SMILES) | EC50 [µM] |
| --- | --- |
| CSC1=CC(=O)c2ccccc2C1=O | 92.5 |
| CC1=C(SCCO)C(=O)c2ccccc2C1=O | 62 |
| O=C1C=C(SCCO)C(=O)c2ccccc21 | 16 |
| O=C1C(=O)c2cccc([N+](=O)[O-])c2-c2c1cccc2[N+](=O)[O-] | 16 |
| O=C(O)CCSC1=CC(=O)c2ccccc2C1=O | 21 |
| Nc1c2c(=O)[nH]c(=O)c2c(N)c2c(=O)c3ccccc3c(=O)c12 | 36 |
| O=C1C(NCCF)=C(Cl)C(=O)c2ncccc21 | 28.7 |
| O=C1C=CC(=O)c2ncccc21 | 16 |
| CC1=C(SCc2ccccc2)C(=O)c2ccccc2C1=O | 95 |
| O=C1C(=O)c2cc(Br)ccc2-c2ccc(Br)cc21 | 19 |
| Nc1ccc2c(c1)C(=O)C(=O)c1ccccc1-2 | 1.6 |
| Cc1ccc(S(=O)(=O)N/N=C2\C(=O)c3ccccc3-c3ccccc32)cc1 | 8.4 |
| NC1=C(Br)C(=O)c2ncccc2C1=O | 16 |
| CC1=C(SCC(=O)O)C(=O)c2ccccc2C1=O | 39 |
| CC(=O)NC1=C(Sc2ccc(Cl)cc2)C(=O)c2ccccc2C1=O | 94 |
| Cc1ccc2c(n1)C(=O)C=CC2=O | 8.6 |
| O=C1C=C(NCCc2cc(Br)c(O)c(Br)c2)C(=O)c2ncccc21 | 92 |
| O=C1C(=O)c2cc(Cl)ccc2-c2ccc(Cl)cc21 | 8.1 to 8.7 |
| Cc1ccc(C(=O)OC2=CC(=O)c3ccccc3C2=O)cc1 | 64 |
| O=C1C2=C(SCCS2)C(=O)c2ccccc21 | 2.2 |
| CC(=O)N(C1=C(Cl)C(=O)c2ccccc2C1=O)c1ccc(F)cc1 | 96 |
| O=C1C(=O)c2cc(Br)cc([N+](=O)[O-])c2-c2ccc(Br)cc21 | 8.3 |
| NC1=C(Cl)C(=O)c2ncccc2C1=O | 13.5 |

| Structure (SMILES) | EC50 [µM] |
| --- | --- |
| O=C1C(Cl)=C(Cl)C(=O)c2ncccc21 | 14 |
| O=C1C(=O)c2cc([N+](=O)[O-])ccc2-c2ccccc21 | 0.5 to 2 |
| CC(=O)NC1=CC(=O)c2cccnc2C1=O | 18 |
| CCSC1=CC(=O)c2ccccc2C1=O | 22 |
| O=C1c2ccccc2-c2ccccc2C1(Cl)Cl | 2.5 to 4.8 |
| COC1=C(N)C(=O)c2ncccc2C1=O | 12 |
| O=C1C(=O)c2ccccc2-c2ccccc21 [9,10-PHENANTHRENEQUINONE] | 3.8 |
| CCSC1=C(C)C(=O)c2ccccc2C1=O | 51 |
| O=C1C(NCCCN2CCCCC2)=CC(=O)c2ncccc21 | 85 |
| O=C1C(=O)c2cc(Cl)ccc2-c2ccccc21 | 1.8 |
| O=C1C(=C(Br)Br)c2ccccc2-c2ccccc21 | 35 |
| CC(=O)c1ccc2c(c1)-c1ccccc1C(=O)C2=O | 2.2 |
| O=C1C(=O)c2cccc([N+](=O)[O-])c2-c2ccccc21 | 2.5 |
| CSC1=C(C)C(=O)c2ccccc2C1=O | 64 |
| CCCCSC1=CC(=O)c2ccccc2C1=O | 40 |
| CCCCN(CCCC)CCCNC1=CC(=O)c2ncccc2C1=O | 70 |
| O=C1c2ccccc2C(=O)C(Cl)C1Cl (centres undefined) | 27 |
| O=C1NC(=S)S/C1=C/c1cc([N+](=O)[O-])ccc1Sc1ccc(C(F)(F)F)cn1 | 46 |
| O=C1CC(Cl)C(=O)c2ccccc21 (centres undefined) | 67.5 |
| O=C1C(=O)c2cc([N+](=O)[O-])ccc2-c2ccc([N+](=O)[O-])cc21 | 18 |
| O=C1C(=C2C=Nc3ccccc32)Nc2ccc(Br)cc21 | 31 |
| NC1=CC(=O)c2ncccc2C1=O | 34 |
| CC(=O)NC1=C(Cl)C(=O)c2ncccc2C1=O | 9 |

Each compound was assayed on MDA-MB-231 (assay: Growth inhibition of human MDA-MB-231 cells incubated for 24 hrs by MTT assay). Conditions: not given.
Format: functional

| Structure (SMILES) | GI50 |
| --- | --- |
| O=C(O)C[C@@H]1OCC=C2CN3CC[C@]45C6=CC(=O)C(=O)C([N+](=O)[O-])=C6N[C@H]4[C@H]1[C@H]2C[C@H]35 | inactive |

Same assay, conditions: MDA-MB-231, 24 h

| Structure (SMILES) | GI50 [µM] |
| --- | --- |
| O=C1NC(=S)S/C1=C/c1cc([N+](=O)[O-])ccc1Sc1ccc(C(F)(F)F)cn1 | 190 |

The compounds below were run on MDA-MB-231 (assay: Induction of cell death in human MDA-MB-231 cells at 50 uM incubated for 24 hrs by MTT assay relative to untreated control). Conditions: not given.
Format: functional

| Structure (SMILES) | Activity [%] |
| --- | --- |
| Cc1oc(-c2ccc(Cl)cc2)cc1C(=O)/C(C#N)=C/c1ccccc1 | 100 |

Source: ChEMBL document CHEMBL4418481, “Chemical agents for the prevention of inhibition or tumor metastasis” (2013)
